In article PMC3975886, “Structural characteristics of an insect group I chitinase, an enzyme indispensable to moulting” (Acta Crystallographica Section D: Biological Crystallography, 2014):

target: OfChtI-CAD (Ostrinia furnacalis, UniProt Q2V6H4, E148Q); assay: isothermal titration calorimetry, single-site model; type: binding; details: 50 mM HEPES pH 8.0, 303 K
From the text: isothermal titration calorimetry, single-site model on OfChtI-CAD

OfChtI-CAD, sequence (Q2V6H4 19-407, stated change not applied): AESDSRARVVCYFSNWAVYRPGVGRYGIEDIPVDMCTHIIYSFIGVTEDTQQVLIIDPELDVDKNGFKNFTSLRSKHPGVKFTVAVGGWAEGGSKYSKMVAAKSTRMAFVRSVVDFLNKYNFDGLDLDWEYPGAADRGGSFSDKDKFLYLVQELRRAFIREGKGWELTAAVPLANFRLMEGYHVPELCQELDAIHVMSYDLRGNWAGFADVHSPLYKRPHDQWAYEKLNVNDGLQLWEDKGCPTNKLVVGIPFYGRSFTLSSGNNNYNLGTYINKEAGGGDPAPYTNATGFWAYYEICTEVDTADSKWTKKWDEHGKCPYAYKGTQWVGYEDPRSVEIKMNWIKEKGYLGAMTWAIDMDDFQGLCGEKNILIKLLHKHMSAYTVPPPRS

SMILES | Kd [nM]
CC(=O)N[C@H]1[C@H](O[C@H]2[C@H](O)[C@@H](NC(C)=O)C(O)O[C@@H]2CO)O[C@H](CO)[C@@H](O[C@@H]2O[C@H](CO)[C@@H](O[C@@H]3O[C@H](CO)[C@@H](O)[C@H](O)[C@H]3NC(C)=O)[C@H](O)[C@H]2NC(C)=O)[C@@H]1O (stereo partly drawn) [(GlcNAc)4] | 11300 ± 1500
CC(=O)N[C@H]1[C@H](O[C@H]2[C@H](O)[C@@H](NC(C)=O)[C@H](O[C@H]3[C@H](O)[C@@H](NC(C)=O)C(O)O[C@@H]3CO)O[C@@H]2CO)O[C@H](CO)[C@@H](O[C@@H]2O[C@H](CO)[C@@H](O[C@@H]3O[C@H](CO)[C@@H](O)[C@H](O)[C@H]3NC(C)=O)[C@H](O)[C@H]2NC(C)=O)[C@@H]1O (stereo partly drawn) [(GlcNAc)5] | 2000 ± 200
CC(=O)N[C@H]1[C@H](O[C@H]2[C@H](O)[C@@H](NC(C)=O)[C@H](O[C@H]3[C@H](O)[C@@H](NC(C)=O)C(O)O[C@@H]3CO)O[C@@H]2CO)O[C@H](CO)[C@@H](O[C@@H]2O[C@H](CO)[C@@H](O[C@@H]3O[C@H](CO)[C@@H](O[C@@H]4O[C@H](CO)[C@@H](O)[C@H](O)[C@H]4NC(C)=O)[C@H](O)[C@H]3NC(C)=O)[C@H](O)[C@H]2NC(C)=O)[C@@H]1O (stereo partly drawn) [(GlcNAc)6, N′,N′′,N′′′,N′′′′,N′′′′′, N′′′′′′-hexaacetylchitohexaose] | 480 ± 90
